From patent US11535633B2, “Fused tricyclic heterocycle compounds and therapeutic uses thereof” (Jiangsu Hengrui Medicine Co., Ltd., priority 2018, dated 2022)
pEC50: −log10 of the molar value.

What was measured:
[1] = biological target: T1, hSTING c-terminal domain (purified hSTING aa154-342) (Homo sapiens, UniProt Q86WV6); test: Thermal shift assay for measuring the relative binding affinity to hSTING c-terminal domain; settings: Tm of sample minus mean Tm of negative control (buffer, 2% DMSO), SYPRO Orange
T1 construct: Purified hSTING (aa154-342)
T1 sequence (Q86WV6 154-342): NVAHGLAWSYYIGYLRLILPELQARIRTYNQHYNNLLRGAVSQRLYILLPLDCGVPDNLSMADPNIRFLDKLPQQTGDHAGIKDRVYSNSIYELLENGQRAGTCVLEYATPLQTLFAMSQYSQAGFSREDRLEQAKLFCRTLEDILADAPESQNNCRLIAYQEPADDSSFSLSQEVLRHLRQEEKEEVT
Description: Test Example 1. Thermal Shift Assay for Measuring the Relative Binding Affinity to hSTING c-Terminal Domain
From each of the 10 mM stock solutions of compounds in DMSO, dilutions are made to create samples with three concentrations 10 mM, 5 mM and 2.5 mM. From these dilutions a final 50 fold dilution is made into assay buffer, giving concentrations of 200 μM, 100 μM, and 50 μM. From each of the buffer dilutions, 5 μL is added to the 384 well assay plate. A positive control is setup with cGAMP using the same dilution scheme as the ligands. A baseline thermal shift for the negative control is determined using buffer and 2% DMSO.
An aliquot of protein is thawed on ice and SYPRO orange reagent is brought to room temperature. The 5000× SYPRO orange stock is diluted in assay buffer to a concentration of 10×. Protein is diluted to a concentration of 10 μM in the prepared buffer/dye solution. Five micro-liters of protein/buffer/dye solution is added to each of the sample and control wells, and the plate is sealed with the provided films. The plate is centrifuged for 5 min at 20° C. at 1000 rpm.
On the Light Cycler instrument, measurements are made over a temperature gradient from 20° C. to 99° C. at 0.07° C./s and data acquisitions collected at a rate of 8/° C. is used to measure the change in fluorescence as a function of temperature. Data analysis is performed using the Roche Light Cycler Software to determine the melting temperature (Tm ° C.) of each sample. A mean Tm ° C. for the negative control is calculated and subtracted from each of the samples to generate the ΔTm ° C. values for each of the ligands.
The relative binding affinity to hSTING c-terminal domain of the compounds of the present invention was determined by the above assay, and ΔTm ° C. values are shown in the following table 1.

[2] = biological target: T2, STING in THP1-Dual KI-hSTING-R232 cells (Homo sapiens, UniProt Q86WV6, H232R); test: Human THP1 reporter cell assay (IRF luciferase reporter); format: cell-based; settings: 24 hours incubation
T2 construct: host or cells: THP1-Dual KI-hSTING-R232 cells (human monocytic THP-1 reporter line)
T2 sequence (Q86WV6 whole entry H232R): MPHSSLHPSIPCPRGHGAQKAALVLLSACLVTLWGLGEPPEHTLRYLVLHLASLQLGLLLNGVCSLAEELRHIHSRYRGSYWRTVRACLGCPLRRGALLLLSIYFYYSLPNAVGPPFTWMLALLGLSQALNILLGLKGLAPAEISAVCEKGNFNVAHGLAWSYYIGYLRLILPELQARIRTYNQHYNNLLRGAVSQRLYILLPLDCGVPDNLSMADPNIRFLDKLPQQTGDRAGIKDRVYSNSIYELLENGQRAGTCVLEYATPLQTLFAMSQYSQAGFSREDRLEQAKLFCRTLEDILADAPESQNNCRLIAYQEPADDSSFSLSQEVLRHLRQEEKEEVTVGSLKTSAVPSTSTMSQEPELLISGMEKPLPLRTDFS
Description: Test Example 2. Human THP1 Reporter Cell Assay
• 1. Human THP1-Dual KI-hSTING-R232 Cells (InvivoGen, Cat. #thpd-r232) • 2. QUANTI-LUC (InvivoGen, Cat. #rep-qlc2) • 3. Media for cell culture and compound dilution: RPMI with high glucose and glutamine (Genesee, Cat. #25-506), 10% fetal bovine serum (Life Technologies, Cat. #10082147), 25 mM HEPES (Genesee, Cat. #25-534), 100 μg/ml Normocin (InvivoGen, Cat. #ant-nr-2), 10 μg/ml blasticidin (InvivoGen, Cat. #ant-bl-05), 100 μg/ml Zeocin (InvivoGen, Cat. #ant-zn-5p) and Penicillin-Streptomycin (100×) (Life Technologies, Cat. #15140122) • 4. Infinite M1000 plate reader (TECAN) Experimental Procedure
Activation of STING in THP1-Dual KI-hSTING-R232 cells was determined by measuring the luminescence signal resulting from the expression of the IRF luciferase reporter gene. All reagent preparation and assay procedures were conducted according to the protocols provided by InvivoGen. In brief, test compounds and cells (1×10^5 cells per well) were dispensed into 96-well plates with a final volume per well of 150 μl. Plates were incubated in a humidified, 5% CO2 incubator at 37° C. for 24 hours. The expression level of the reporter gene was measured by transferring 20 μl of the supernatant to a non-transparent 96-well plate to which 50 μl of QUANTI-LUC was dispensed into each well. The resulting luminescence signal was immediately read using a TECAN plate reader. The background luminescence signal from media was subtracted. The fold induction effect of the luminescence signal at each compound concentration was determined relative to controls that lack compound treatment. The plot of fold induction effect versus the log of compound concentration was fit in GraphPad Prism with a 4-parameter concentration response equation to calculate EC50 and Emax.
Activation of STING in THP1 of the compounds in the present invention was determined by the above assay, and EC50 values are shown in the following table 2.

Compound | ΔTm at 100 µM [1] | pEC50 [2]
CCn1nc(C)cc1C(=O)Nc1nc2cc(C(N)=O)cc3c2n1[C@@H](CC(O)CO)CO3 (stereo partly drawn) [Example 9, (3S)-3-(2,3-dihydroxypropyl)-2-(1-ethyl-3-methyl-1H-pyrazole-5-carboxamido)-3,4-dihydro-5-oxa-1,2a-diazaacenaphthylene-7-carboxamide] | -0.1 °C | –
CCn1nc(C)cc1C(=O)N(C)c1nc2cc(C(N)=O)cc3c2n1CCO3 [Example 3, 2-(1-ethyl-N,3-dimethyl-1H-pyrazole-5-carboxamido)-3,4-dihydro-5-oxa-1,2a-diazaacenaphthylene-7-carboxamide] | 0.7 °C | –
C=CC[C@H]1CN(CCCOC)c2cc(C(N)=O)cc3nc(NC(=O)c4cc(C)nn4CC)n1c23 [Example 30, (S)-4-allyl-2-(1-ethyl-3-methyl-1H-pyrazole-5-carboxamido)-6-(3-methoxypropyl)-5,6-dihydro-4H-imidazo[1,5,4-de]quinoxaline-8-carboxamide] | – | 5.82
CCn1nc(C)cc1C(=O)Nc1nc2cc(C(N)=O)cc(OCCCOC)c2n1CCC[C@H]1COc2cc(C(N)=O)cc3nc(NC(=O)c4cc(C)nn4CC)n1c23 [Example 21, (S)-3-(3-(5-carbamoyl-2-(1-ethyl-3-methyl-1H-pyrazole-5-carboxamido)-7-(3-methoxypropoxy)-1H-benzo[d]imidazol-1-yl)propyl)-2-(1-ethyl-3-methyl-1H-pyrazole-5-carboxamido)-3,4-dihydro-5-oxa-1,2a-diazaacenaphthylene-7-carboxamide] | 13 °C | 7.22
CCC=CC[C@H]1COc2cc(C(N)=O)cc3nc(NC(=O)c4cc(C)nn4CC)n1c23 [Example 8, (S)-2-(1-ethyl-3-methyl-1H-pyrazole-5-carboxamido)-3-(pent-2-en-1-yl)-3,4-dihydro-5-oxa-1,2a-diazaacenaphthylene-7-carboxamide] | 7.5 °C | 5.59
C/C=C/C[C@@H]1COc2cc(C(N)=O)cc3nc(NC(=O)c4cc(C)nn4CC)n1c23 [Example 5-1, (R,E)-3-(but-2-en-1-yl)-2-(1-ethyl-3-methyl-1H-pyrazole-5-carboxamido)-3,4-dihydro-5-oxa-1,2a-diazaacenaphthylene-7-carboxamide] | – | < 4.70
C=CC[C@H]1CN(C)c2cc(C(N)=O)cc3nc(NC(=O)c4cc(C)nn4CC)n1c23 [Example 31, (S)-4-allyl-2-(1-ethyl-3-methyl-1H-pyrazole-5-carboxamido)-6-methyl-5,6-dihydro-4H-imidazo[1,5,4-de]quinoxaline-8-carboxamide] | – | 5.62
CCn1nc(C)cc1C(=O)Nc1nc2cc(C(N)=O)cc(OC)c2n1CCCNCCC1COc2cc(C(N)=O)cc3nc(NC(=O)c4cc(C)nn4CC)n1c23 (stereo not shown) [Example 17, 3-(2-((3-(5-carbamoyl-2-(1-ethyl-3-methyl-1H-pyrazole-5-carboxamido)-7-methoxy-1H-benzo[d]imidazol-1-yl)propyl)amino)ethyl)-2-(1-ethyl-3-methyl-1H-pyrazole-5-carboxamido)-3,4-dihydro-5-oxa-1,2a-diazaacenaphthylene-7-carboxamide] | 2 °C | –
CCn1nc(C)cc1C(=O)Nc1nc2cc(C(N)=O)cc3c2n1[C@@H](CCCNC(=O)OCc1ccccc1)CO3 [Example 4, (S)-benzyl (3-(7-carbamoyl-2-(1-ethyl-3-methyl-1H-pyrazole-5-carboxamido)-3,4-dihydro-5-oxa-1,2a-diazaacenaphthylen-3-yl)propyl)carbamate] | 4.6 °C | –
CCn1nc(C)cc1C(=O)Nc1nc2cc(C(N)=O)cc3c2n1[C@@H](C/C=C/CC(CC(=O)c1cc2cc(OC)c(OC)cc2s1)C(=O)O)CO3 (stereo partly drawn) [Example 28, (E)-6-((S)-7-carbamoyl-2-(1-ethyl-3-methyl-1H-pyrazole-5-carboxamido)-3,4-dihydro-5-oxa-1,2a-diazaacenaphthylen-3-yl)-2-(2-(5,6-dimethoxybenzo[b]thiophen-2-yl)-2-oxoethyl)hex-4-enoic acid] | – | < 4.70
CCn1nc(C)cc1C(=O)Nc1nc2cc(C(N)=O)cc3c2n1CCO3 [Example 2, 2-(1-ethyl-3-methyl-1H-pyrazole-5-carboxamido)-3,4-dihydro-5-oxa-1,2a-diazaacenaphthylene-7-carboxamide] | 1.1 °C | –
C=CCC1CCCOc2cc(C(N)=O)cc3nc(NC(=O)c4cc(C)nn4CC)n1c23 (stereo not shown) [Example 27, 10-allyl-1-(1-ethyl-3-methyl-1H-pyrazole-5-carboxamido)-7,8,9,10-tetrahydro-6-oxa-2,10a-diazacycloocta[cd]indene-4-carboxamide] | – | < 4.70
CCn1nc(C)cc1C(=O)Nc1nc2cc(C(N)=O)cc(OC)c2n1CCCCC1COc2cc(C(N)=O)cc3nc(NC(=O)c4cc(C)nn4CC)n1c23 (stereo in doubt) [Example 16, (S)-3-(4-(5-carbamoyl-2-(1-ethyl-3-methyl-1H-pyrazole-5-carboxamido)-7-methoxy-1H-benzo[d]imidazol-1-yl)butyl)-2-(1-ethyl-3-methyl-1H-pyrazole-5-carboxamido)-3,4-dihydro-5-oxa-1,2a-diazaacenaphthylene-7-carboxamide] | 1 °C | –
C=CC[C@@H]1COc2cc(C(N)=O)cc3nc(NC(=O)c4cc(C)nn4CC)n1c23 [Example 6, (R)-3-allyl-2-(1-ethyl-3-methyl-1H-pyrazole-5-carboxamido)-3,4-dihydro-5-oxa-1,2a-diazaacenaphthylene-7-carboxamide] | -0.5 °C | –
CCn1nc(C)cc1C(=O)Nc1nc2cc(C(N)=O)cc(OCCCOP(=O)(O)O)c2n1CCC[C@H]1COc2cc(C(N)=O)cc3nc(NC(=O)c4cc(C)nn4CC)n1c23 [Example 23, (S)-3-((5-carbamoyl-1-(3-(7-carbamoyl-2-(1-ethyl-3-methyl-1H-pyrazole-5-carboxamido)-3,4-dihydro-5-oxa-1,2a-diazaacenaphthylen-3-yl)propyl)-2-(1-ethyl-3-methyl-1H-pyrazole-5-carboxamido)-1H-benzo[d]imidazol-7-yl)oxy)propyl dihydrogen phosphate] | 11 °C | 6.15
CCC[C@H]1COc2cc(C(N)=O)cc3nc(NC(=O)c4cc(C)nn4CC)n1c23 [Example 7, (S)-2-(1-ethyl-3-methyl-1H-pyrazole-5-carboxamido)-3-propyl-3,4-dihydro-5-oxa-1,2a-diazaacenaphthylene-7-carboxamide] | 5.4 °C | –
C=CCOc1cc(C(N)=O)cc2nc(NC(=O)c3cc(C)nn3CC)n(CCC[C@H]3COc4cc(C(N)=O)cc5nc(NC(=O)c6cc(C)nn6CC)n3c45)c12 [Example 25, (S)-3-(3-(7-(allyloxy)-5-carbamoyl-2-(1-ethyl-3-methyl-1H-pyrazole-5-carboxamido)-1H-benzo[d]imidazol-1-yl)propyl)-2-(1-ethyl-3-methyl-1H-pyrazole-5-carboxamido)-3,4-dihydro-5-oxa-1,2a-diazaacenaphthylene-7-carboxamide] | 13 °C | 6.30
C=CC[C@H]1CNc2cc(C(N)=O)cc3nc(NC(=O)c4cc(C)nn4CC)n1c23 [Example 29, (S)-4-allyl-2-(1-ethyl-3-methyl-1H-pyrazole-5-carboxamido)-5,6-dihydro-4H-imidazo[1,5,4-de]quinoxaline-8-carboxamide] | – | 4.92
